What all share (assay type): functional, cell-based
The nature of assay [1]: Cytotoxicity against human MKN28 cells assessed as cell survival after 48 hrs by MTT assay. As to conditions: MKN-28, 48 h. In general terms: Tetrazolium assays rely on reduction of a dye to a coloured formazan, in cell work by metabolically active cells.
The test system of another assay is B16. As to the kind of experiment: Cytotoxicity against mouse B16 cells assessed as cell survival after 48 hrs by MTT assay. As to conditions: B16, 48 h.
For the next assay, the system named is HeLa. As to the kind of experiment: Cytotoxicity against human HeLa cells assessed as cell survival after 48 hrs by MTT assay.

A word on the IC50: it is the point on the concentration scale where inhibition reaches its midpoint. Regarding `COc1cccc2c1[nH]c1c3[n+](cc(OC)c12)[C@H](c1ncc(OC)c2c1[nH]c1ccccc12)CCC3`, the IC50 in assay [1] turned out to be 6.3 µM; with B16, 10.8 µM; in the assay with HeLa it was 5.75 µM.
The corresponding values for `COc1cccc2c1[nH]c1c3[n+](cc(OC)c12)[C@@H](c1ncc(OC)c2c1[nH]c1ccccc12)CCC3` are 12.3 µM, 15.4 µM and 10.5 µM.
As to `COc1cccc2c1[nH]c1c([C@@H]3CCCc4c5[nH]c6c(O)cccc6c5c(OC)c[n+]43)ncc(OC)c12`, the IC50 in assay [1] was 4.91 µM; in the assay on B16, 9.34 µM; in the assay with HeLa it was 4.03 µM.
With `COc1cccc2c1[nH]c1c([C@H]3CCCc4c5[nH]c6c(O)cccc6c5c(OC)c[n+]43)ncc(OC)c12`, the IC50 was 9.64 µM in assay [1], 14.8 µM in the assay on B16 and 10.9 µM in the assay with HeLa.
The corresponding values for `O=c1[nH]cc(F)c(=O)[nH]1` [FLUOROURACIL] are 9.67 µM, 7.64 µM and 13.5 µM.

The record behind these values is ChEMBL document CHEMBL3352562, “(±)-Quassidines I and J, two pairs of cytotoxic bis-β-carboline alkaloid enantiomers from Picrasma quassioides” (J Nat Prod, 2015).
